Reference: patent US12617779B2, “Self degradation-type CDK9 inhibitor prodrug and liposome encapsulating same” (Sumitomo Pharma Co., Ltd., priority 2021, dated 2026)

Legend:
[1] = Evaluation of conversion rate to active form in human plasma (Experimental Example 3); assay type: in vitro ADME; settings: human, 0.2 μmol/L
Description: (§1) For Example 1, Example 2, Example 3, Example 4, Example 5, Example 6, Comparative Example 3, Comparative Example 4, Comparative Example 6, Comparative Example 7, Comparative Example 8, Comparative Example 9, Comparative Example 10 and Comparative Example 12, the attrition rate of the test compound and the conversion rate of the test compound to Alvocidib in human plasma and BALB/c mouse plasma were calculated by the following method.
(§2) The test compound was added to human plasma or BALB/c mouse plasma at a concentration of 0.2 μmol/L, and incubated at 37° C. The peak areas of the test compound and Alvocidib in the sample were determined by LC-MS/MS after 0, 30 and 60 minutes for Example 1, Example 2, Example 3, Example 4, Example 5 and Example 6, and after 0, 60 and 120 minutes for Comparative Example 3, Comparative Example 4, Comparative Example 6, Comparative Example 7, Comparative Example 8, Comparative Example 9, Comparative Example 10 and Comparative Example 12, and the attrition rate of the test compound and the conversion rate of the test compound to Alvocidib were calculated by the following formula. Attrition rate of test compound (%):(peak area of test compound in sample/peak area of test compound in sample after 0 minute)×100 Conversion rate to Alvocidib (%):(peak area of Alvocidib in sample/peak area of Alvocidib in reaction solution containing 0.2 μmol/L Alvocidib)×100
(§3) The measurement conditions for LC-MS/MS are as follows. • HPLC: Prominence system (Shimadzu Corporation) • MS/MS: • Example 1, Example 2, Example 3, Example 4, Example 5, Example 6, Comparative Example 8 (mouse), Comparative Example 10 (mouse) and Comparative Example 12 (mouse) • QTRAP5500 (SCIEX) • Comparative Example 6, Comparative Example 7, Comparative Example 8 (human), Comparative Example 9, Comparative Example 10 (human) and Comparative Example 12 (human) • 4000 QTRAP (SCIEX) • column: • other than Example 3 and Example 4 • Cadenza CD-C18, 3 μm, 50×2 mm (Imtakt Corporation) • Example 3 and Example 4 • Kinetex C8, 2.6 μm, 50×2.1 mm (Phenomenex) • column temperature: 40° C. • mobile phase: • A: water containing 0.1% formic acid • B: acetonitrile containing 0.1% formic acid • A/B (min): • Example 1, Example 2, Example 5, Example 6, Comparative Example 8 (mouse), Comparative Example 10 (mouse) and Comparative Example 12 (mouse) • 90/10(0)→40/60(5.0)→10/90(5.1)→10/90(6.5)→90/10(6.6)→90/10(8.0) • Example 3 and Example 4 • 86/14(0)→86/14(3.5)→10/90(5.5)→10/90(6.5)→86/14(6.6)→86/14(9.5) • Comparative Example 6, Comparative Example 7, Comparative Example 8 (human), Comparative Example 9, Comparative Example 10 (human) and Comparative Example 12 (human) • 90/10(0)→10/90(2.5)→10/90(3.5)→90/10(3.6)→90/10(5.0) • flow rate: 0.4 mL/min • detection: ESI (positive mode) • injection: 1 to 5 μL

[2] = Evaluation of conversion rate to active form in BALB/c mouse plasma (Experimental Example 3); assay type: in vitro ADME; settings: BALB/c, mouse, 0.2 μmol/L
Description: as §1, §2, §3

[3] = Evaluation of conversion rate to active form in buffer solution (Experimental Example 1); assay type: physicochemical
Description: For Examples 1 to 16 and Comparative Examples 1 to 14, the attrition rate of the test compound and the conversion rate of the test compound to Alvocidib in a buffer solution were calculated by the following method.
Examples 1 to 16 and Comparative Examples 1 to 14 were each left in buffer solutions adjusted to pH 5.0, 5.5, 6.0, 6.5, 7.0 and 7.4, respectively, at a concentration of 25 umol/L at 37° C. After 0, 0.5, 1, 2 and 3 hours, the residual rates of the compounds of Examples […] and the production rate of Alvocidib were determined by HPLC.
The buffer solutions used at each pH are as follows. • pH 5.0: 50 mM citrate buffer solution (pH 5.0) • pH 5.5: 50 mM citrate buffer solution (pH 5.5) • pH 6.0: 50 mM phosphate buffer solution (pH 6.0) • pH 6.5: 50 mM phosphate buffer solution (pH 6.5) • pH 7.0: 50 mM phosphate buffer solution (pH 7.0) • pH 7.4: 50 mM phosphate buffer solution (pH 7.4)
The measurement conditions for HPLC are as follows.

- Production rate (%) of Alvocidib ([1]; 0 min): 2%
- Residual rate (%) of test compound ([1]; 0 min): 100%
- Production rate (%) of Alvocidib ([1]; 60 min): 3%
- Residual rate (%) of test compound ([1]; 60 min): 101%
- Production rate (%) of Alvocidib ([1]; 120 min): 3%
- Residual rate (%) of test compound ([1]; 120 min): 134%
- Production rate (%) of Alvocidib ([2]; 0 min): 2%
- Residual rate (%) of test compound ([2]; 0 min): 100%
- Production rate (%) of Alvocidib ([2]; 60 min): 3%
- Residual rate (%) of test compound ([2]; 60 min): 94%
- Production rate (%) of Alvocidib ([2]; 120 min): 3%
- Residual rate (%) of test compound ([2]; 120 min): 92%
- Production rate of Alvocidib ([3]; pH5.0, 0 hr): 1.7%
- Residual rate ([3]; pH5.0, 0 hr): 97.7%
- Production rate of Alvocidib ([3]; pH5.0, 0.5 hr): 1.8%
- Residual rate ([3]; pH5.0, 0.5 hr): 97.8%
- Production rate of Alvocidib ([3]; pH5.0, 1 hr): 1.7%
- Residual rate ([3]; pH5.0, 1 hr): 97.8%
- Production rate of Alvocidib ([3]; pH5.0, 2 hr): 1.8%
- Residual rate ([3]; pH5.0, 2 hr): 97.7%
- Production rate of Alvocidib ([3]; pH5.0, 3 hr): 1.8%
- Residual rate ([3]; pH5.0, 3 hr): 97.7%
- Production rate of Alvocidib ([3]; pH5.5, 0 hr): 1.8%
- Residual rate ([3]; pH5.5, 0 hr): 97.8%
- Production rate of Alvocidib ([3]; pH5.5, 0.5 hr): 1.8%
- Residual rate ([3]; pH5.5, 0.5 hr): 97.6%
- Production rate of Alvocidib ([3]; pH5.5, 1 hr): 1.8%
- Residual rate ([3]; pH5.5, 1 hr): 97.7%
- Production rate of Alvocidib ([3]; pH5.5, 2 hr): 1.8%
- Residual rate ([3]; pH5.5, 2 hr): 97.8%
- Production rate of Alvocidib ([3]; pH5.5, 3 hr): 1.8%
- Residual rate ([3]; pH5.5, 3 hr): 97.6%
- Production rate of Alvocidib ([3]; pH6.0, 0 hr): 1.8%
- Residual rate ([3]; pH6.0, 0 hr): 97.8%
- Production rate of Alvocidib ([3]; pH6.0, 0.5 hr): 1.8%
- Residual rate ([3]; pH6.0, 0.5 hr): 97.7%
- Production rate of Alvocidib ([3]; pH6.0, 1 hr): 1.7%
- Residual rate ([3]; pH6.0, 1 hr): 97.7%
- Production rate of Alvocidib ([3]; pH6.0, 2 hr): 1.8%
- Residual rate ([3]; pH6.0, 2 hr): 97.7%
- Production rate of Alvocidib ([3]; pH6.0, 3 hr): 1.8%
- Residual rate ([3]; pH6.0, 3 hr): 97.7%
- Production rate of Alvocidib ([3]; pH6.5, 0 hr): 1.8%
- Residual rate ([3]; pH6.5, 0 hr): 97.7%
- Production rate of Alvocidib ([3]; pH6.5, 0.5 hr): 1.8%
- Residual rate ([3]; pH6.5, 0.5 hr): 97.6%
- Production rate of Alvocidib ([3]; pH6.5, 1 hr): 1.8%
- Residual rate ([3]; pH6.5, 1 hr): 97.7%
- Production rate of Alvocidib ([3]; pH6.5, 2 hr): 1.8%
- Residual rate ([3]; pH6.5, 2 hr): 97.8%
- Production rate of Alvocidib ([3]; pH6.5, 3 hr): 1.8%
- Residual rate ([3]; pH6.5, 3 hr): 97.7%
- Production rate of Alvocidib ([3]; pH7.0, 0 hr): 1.8%
- Residual rate ([3]; pH7.0, 0 hr): 97.7%
- Production rate of Alvocidib ([3]; pH7.0, 0.5 hr): 1.8%
- Residual rate ([3]; pH7.0, 0.5 hr): 97.7%
- Production rate of Alvocidib ([3]; pH7.0, 1 hr): 1.8%
- Residual rate ([3]; pH7.0, 1 hr): 97.6%
- Production rate of Alvocidib ([3]; pH7.0, 2 hr): 1.8%
- Residual rate ([3]; pH7.0, 2 hr): 97.6%
- Production rate of Alvocidib ([3]; pH7.0, 3 hr): 1.8%
- Residual rate ([3]; pH7.0, 3 hr): 97.7%
- Production rate of Alvocidib ([3]; pH7.4, 0 hr): 1.8%
- Residual rate ([3]; pH7.4, 0 hr): 97.7%
- Conversion to Alvocidib at pH 7.4 ([3]; pH 7.4, 37° C., up to 3 hours): slowly converted to Alvocidib
- Production rate of Alvocidib ([3]; pH7.4, 0.5 hr): 1.8%
- Residual rate ([3]; pH7.4, 0.5 hr): 97.6%
- Production rate of Alvocidib ([3]; pH7.4, 1 hr): 1.7%
- Residual rate ([3]; pH7.4, 1 hr): 97.7%
- Production rate of Alvocidib ([3]; pH7.4, 2 hr): 1.8%
- Residual rate ([3]; pH7.4, 2 hr): 97.7%
- Production rate of Alvocidib ([3]; pH7.4, 3 hr): 1.8%
- Residual rate ([3]; pH7.4, 3 hr): 97.8%
SMILES: CCNC(=O)O[C@@H]1CN(C)CC[C@@H]1c1c(O)cc(O)c2c(=O)cc(-c3ccccc3Cl)oc12 [Comparative Example 4, reference compound]
